Source: patent US12605353B2, “PDIA4 inhibitors and use thereof for inhibiting β-cell pathogenesis and treating diabetes” (Academia Sinica, priority 2019, dated 2026)
Like-named read-outs stand apart in the source and are kept apart here.

Legend:
[1] = biological target: T1, PDIA4 (Homo sapiens, UniProt P13667); test: biochemical;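 also: enzymatic activity of PDIA4 read as absorbance at 595 nm, inhibition given as percent decrease relative to vehicle-treated control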
T1 sequence (P13667 21-645): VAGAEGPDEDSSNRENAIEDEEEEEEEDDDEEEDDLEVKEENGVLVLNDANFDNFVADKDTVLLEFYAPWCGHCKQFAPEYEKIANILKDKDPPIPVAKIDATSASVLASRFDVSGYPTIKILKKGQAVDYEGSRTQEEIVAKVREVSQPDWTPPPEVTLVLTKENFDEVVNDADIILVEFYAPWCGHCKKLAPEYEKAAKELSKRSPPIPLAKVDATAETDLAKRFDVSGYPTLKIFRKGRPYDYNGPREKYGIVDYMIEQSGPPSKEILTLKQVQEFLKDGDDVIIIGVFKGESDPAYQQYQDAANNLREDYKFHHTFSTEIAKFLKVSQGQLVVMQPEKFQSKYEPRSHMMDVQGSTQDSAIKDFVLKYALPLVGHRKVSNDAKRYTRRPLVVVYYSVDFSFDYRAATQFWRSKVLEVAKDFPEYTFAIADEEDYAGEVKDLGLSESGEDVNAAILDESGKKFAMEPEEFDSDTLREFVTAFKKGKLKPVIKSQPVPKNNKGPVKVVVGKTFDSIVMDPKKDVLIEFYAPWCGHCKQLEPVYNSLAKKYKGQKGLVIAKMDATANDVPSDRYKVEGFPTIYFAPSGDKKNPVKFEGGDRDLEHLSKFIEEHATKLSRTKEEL
Description: Recombinant PDI proteins PDIA4 (23 pM) was incubated with insulin (0.2 mM) and DTT (0.1 mM) in the presence of vehicle and compounds at the indicated doses for 30 min at 25° C. The mixture was, measured using a SpectraMax i3x reader at 595 nm based on the manufacturer's instructions (Molecular device, CA, USA). Inhibition of the enzymatic activity PDIA4 is calculated by the formula, 100%×(OD595 of vehicle−OD595 of CP)/(OD595 of vehicle) as published previously.

[2] = system: Min6 cells; test: Glucose-stimulated insulin secretion in Min6 cells (insulin ELISA); assay type: cell-based, mouse; settings: for insulin secretion in β-cells, in words: Min6 β-cells
Description: (§1) (A) Effect of drug candidates on insulin secretion in β-cells. Min6 cells were incubated in serum-free oxygen-saturated Krebs-Ringer bicarbonate (KRB) buffer containing high glucose (16.7 mM), CCF642 and drug candidates for 30 min. The supernatants were collected for insulin ELISA assay. (B) Min6 cells were incubated with PBS, CCF642 and drug candidates, respectively, for 24 h. Following PBS washing, WST-1 was added into each well for additional 20 min incubation.
Min6 cells were grown in complete Dulbecco's modified Eagle medium (DMEM) medium containing 10% fetal bovine serum, 100 units/ml penicillin and 100 µg/ml streptomycin in a 5% CO2 incubator in the presence of 3.3 mM glucose unless indicated otherwise. Min6 cells were pre-incubated in serum-free oxygen-saturated Krebs-Ringer bicarbonate (KRB) buffer containing 3.3 mM glucose at 37° C. for 30 min. The cells (7.5×10^4) were then incubated with KRB buffer containing high glucose (16.7 mM) or low glucose (3.3 mM) for an additional 30 min. The supernatants were collected for insulin ELISA assay.

[3] = Cell viability test (WST-1) in Min6 cells; assay type: cell-based, mouse; settings: mouse
Description: as §1
Min6 cells were cultured at 37° C. in complete medium. Cell cytotoxicity was determined using WST-1 (4-[3-(4-Iodophenyl)-2-(4-nitrophenyl)-2H-5-tetrazolio]-1,3-benzene Disulfonate) according to the manutkturet's guidelines. Briefly, the cells were grown in a […] containing complete medium in the presence of the indicated compounds for 24 h. Following PBS washing, WST-1 was added into each well for additional 20 min incubation. After removing the medium, the cells in the plate were measured with a SpectraMax i3x reader at 450 nm.

[4] = Min6, a mouse β-cells, read-out: EC50 values, insulin-releasing action
[5] = Mus musculus, 0.5 h, Table 5, insulin secretion, Min6 cells, high glucose (16.7 mM), 30 min, read-out: EC50
[6] = Table 5, 24 h, WST-1, read-out: CC50

Row | SMILES | IC50 [1] | further results
1 | C#CC(=O)Nc1cc(OC)c(OCCCN2C(=O)c3ccccc3C2=O)cc1C(=O)OC [50b, methyl 5-(3-(1,3-dioxoisoindolin-2-yl)propoxy)-4-methoxy-2-propiolamidobenzoate] | 4.3 µM | 
2 | C#CC(=O)Nc1cc(OC)c(OCCCN(C(=O)C#C)C(=O)c2ccccc2F)cc1C(=O)OC [58b, methyl 5-(3-(2-fluoro-N-propioloylbenzamido)propoxy)-4-methoxy-propiolamidobenzoate] | 4.2 µM | 
3 | C#CC(=O)Nc1cc(OC)c(OCCCN(C(=O)C#C)C(=O)c2ccc(F)cc2)cc1C(=O)OC [58d, methyl 5-(3-(4-fluoro-N-propioloylbenzamido)propoxy)-4-methoxy-2-propiolamidobenzoate] | 2.4 µM | 
4 | C#CC(=O)Nc1cc(OC)c(OCCCN(C(=O)C#C)C(=O)c2cccc(OC)c2)cc1C(=O)OC [58g] | 3.3 µM | 
5 | C#CC(=O)Nc1cc(OC)c(OCCCN(C(=O)C#C)C(=O)Cc2ccccc2)cc1C(=O)OC [58i, methyl 4-methoxy-5-(3-(N-(2-phenylacetyl)propiolamido)propoxy)-2-propiolamidobenzoate] | 1.9 µM | 
6 | C#CC(=O)Nc1cc(OC)c(OCCCN(C(=O)C#C)C(=O)Cc2ccc(F)cc2)cc1C(=O)OC [58l] | 1.4 µM | 
7 | C#CC(=O)Nc1cc(OC)c(OCCCN(C(=O)C#C)C(=O)Cc2cccc(OC)c2)cc1C(=O)OC [58n, methyl 4-methoxy-5-(3-(N-(2-(3-methoxyphenyl)acetyl)propiolamido)propoxy)-2-propiolamidobenzoate] | 1.4 µM | 
8 | C#CC(=O)Nc1cc(OC)c(OCCCN(C(=O)C#C)C(=O)Cc2ccc(OC)cc2)cc1C(=O)OC [58o, methyl 4-methoxy-5-(3-(N-(2-(4-methoxyphenyl)acetyl)propiolamido)propoxy)-2-propiolamidobenzoate] | 2.1 µM | 
9 | C#CC(=O)Nc1cc(OC)c(OCCCN(C(=O)C#C)C(=O)Cc2cccc(Cl)c2)cc1C(=O)OC [58r, methyl 5-(3-(N-(2-(3-chlorophenyl)acetyl)propiolamido)propoxy)-4-methoxy-2-propiolamidobenzoate] | 1.6 µM | 
10 | C#CC(=O)Nc1cc(OC)c(OCCCN(C(=O)C#C)C(=O)Cc2ccccc2C(F)(F)F)cc1C(=O)OC [58s, methyl 4-methoxy-2-propiolamido-5-(3-(N-(2-(2-(trifluoromethyl)phenyl)acetyl)propiolamido)propoxy)benzoate] |  | EC50 [2, 4]: 0.03 µM; insulin secretion in β-cells, in words [2]: could augment insulin secretion; EC50 [2, 5]: 0.02 µM; CC50 at 24 h [3, 6]: 64.9 µM; CC50 at 24 h ([3]; read-out: CC50 values): > 100 µM
11 | C#CC(=O)Nc1cc(OC)c(OCCCN(C(=O)C#C)C(=O)Cc2cccc(C(F)(F)F)c2)cc1C(=O)OC [58t, methyl 4-methoxy-2-propiolamido-5-(3-(N-(2-(3-(trifluoromethyl)phenyl)acetyl)propiolamido)propoxy)benzoate] | 0.8 µM | EC50 [2, 4]: 0.02 µM; insulin secretion in β-cells, in words [2]: could augment insulin secretion; EC50 [2, 5]: 0.03 µM; SI (CC50/EC50) ([2]; Table 5, Min6 cells): >3333; CC50 at 24 h [3, 6]: > 100 µM; CC50 at 24 h ([3]; read-out: CC50 values): 64.9 µM
12 | CC#CC#C/C=C1/C=CC(=O)O1 [C2, (Z)-5-(hexa-2,4-diyn-1-ylidene)furan-2(5H)-one] | 96.5 µM | 
13 | C#CC(=O)N(c1ccc(OC)cc1OC)C(C(=O)NCC(=O)OCC)c1cccs1 (stereo not shown) [C5, ethyl (2-(N-(2,4-dimethoxyphenyl)propiolamido)-2-(thiophen-2-yl)acetyl)glycinate] | 760 µM | 
14 | CC#CC#C/C=C1\C=CC2(OC=CC2OC(=O)C=C(C)C)O1 (stereo not shown) [C6, (E)-7-(hexa-2,4-diyn-1-ylidene)-1,6-dioxaspiro[4,4]nona-2,8-dien-4-yl 3-methylbut-2-enoate] | 753 µM | 
15 | OCC#CC(O)c1ccccc1 (stereo not shown) [C7, 1-phenylbut-2-yne-1,4-diol] | > 1000 µM | 
16 | CC#CCNc1ccc(NC(C)=O)cc1 [C8, N-(4-(but-2-yn-1-ylamino)phenyl)acetamide] | > 1000 µM | 
17 | O=C(Cc1ccccc1)OCC#CC#CCOC(=O)Cc1ccccc1 [C9, hexa-2,4-diyne-1,6-diyl bis(2-phenylacetate)] | > 1000 µM | 
18 | O=C(OCC#CC#CCOC(=O)c1ccccc1)c1ccccc1 [C10, hexa-2,4-diyne-1,6-diyl dibenzoate] | > 1000 µM | 
19 | C#CC(=O)Nc1ccc(C(=O)NCC(=O)O)cc1 [C11, (4-propiolamidobenzoyl)glycine] | 27.6 µM | 
20 | C#CC(=O)Nc1ccc(CC(=O)O)cc1 [C12, 2-(4-propiolamidophenyl)acetic acid] | 92.1 µM | 

Row | SMILES | IC50 [1] | further results
21 | C#CC(=O)Nc1ccc(O)c(C(=O)O)c1 [C14, 2-hydroxy-5-propiolamidobenzoic acid] | 55.7 µM | 
22 | CC#CC#CC#CC#CCCC(O)CO (stereo not shown) [CPD P2, cytopiloyne aglycone, reference compound] | 168 µM | 
23 | COC(=O)c1cc(OC)c(OC)cc1N [compound 3, methyl 2-amino-4,5-dimethoxybenzoate] | > 1000 µM | 
24 | C#CC(=O)Nc1cc(OC)c(OC)cc1C(=O)OCC[Si](C)(C)C [compound 7, 2-(trimethylsilyl)ethyl 4,5-dimethoxy-2-propiolamidobenzoate] | 78.7 µM | 
25 | COc1cc(N)c(C(=O)O)cc1OC [compound 9, 2-amino-4,5-dimethoxybenzoic acid] | > 1000 µM | 
26 | C#CC(=O)OC(=O)c1cc(OC)c(OC)cc1N [compound 10, 2-amino-4,5-dimethoxybenzoic propiolic anhydride] | 1.6 µM | 
27 | C#CC(=O)OC(=O)c1cc(OCc2ccccc2)c(OC)cc1N [compound 16, 2-amino-5-(benzyloxy)-4-methoxybenzoic propiolic anhydride] | 13.3 µM | 
28 | COC(=O)c1cc(OC)c(OC)c(OC)c1N [compound 19, methyl 2-amino-3,4,5-trimethoxybenzoate] | > 1000 µM | 
29 | C#CC(=O)Nc1c(C(=O)OC)cc(OC)c(OC)c1OC [compound 20, methyl 3,4,5-trimethoxy-2-propiolamidobenzoate] | 42.5 µM | 
30 | COc1cc(C(=O)O)c(N)c(OC)c1OC [compound 21, 2-amino-3,4,5-trimethoxybenzoic acid] | > 1000 µM | 
31 | C#CC(=O)OC(=O)c1cc(OC)c(OC)c(OC)c1N [compound 22, 2-amino-3,4,5-trimethoxybenzoic propiolic anhydride] | 4.3 µM | 
32 | C#CC(=O)Nc1cc(OCCC)c(OCCC)cc1C(=O)OC [compound 29, methyl 2-propiolamido-4,5-dipropoxybenzoate] | > 300 µM | 
33 | C#CC(=O)Nc1cc(OCCC)c(OCCC)cc1C(=O)OCCC [compound 30, propyl 2-propiolamido-4,5-dipropoxybenzoate] | > 300 µM | 
34 | C#CC(=O)Nc1cc(OC)c(OCCCN(C(=O)C#C)C(=O)c2ccccc2)cc1C(=O)O [compound 40, 4-methoxy-2-propiolamido-5-(3-(N-propioloylbenzamido)propoxy)benzoic acid] | 3.9 µM | 
35 | C#CC(=O)Nc1cc(OC)c(OCCC)cc1C(=O)OCCC [compound 43, propyl 4-methoxy-2-propiolamido-5-propoxybenzoate] | 431 µM | 
36 | CCCOc1cc(C(=O)O)c(N)cc1OC [compound 44, 2-amino-4-methoxy-5-propoxybenzoic acid] | > 1000 µM | 
37 | C#CC(=O)OC(=O)c1cc(OCCC)c(OC)cc1N [compound 45, 2-amino-4-methoxy-5-propoxybenzoic propiolic anhydride] | 1 µM | 
38 | COC(=O)c1cc(OCCCN)c(OC)cc1[N+](=O)[O-] [compound 55, methyl 5-(3-aminopropoxy)-4-methoxy-2-nitrobenzoate] | > 1000 µM | 
39 | C#CC(=O)Nc1cc(OC)c(OCCCNC(=O)OC(C)(C)C)cc1C(=O)OC [compound 61, Methyl 5-(3-((tert-butoxycarbonyl)amino)propoxy)-4-methoxy-2-propiolamidobenzoate] | 4.7 µM | 
